Test results published in patent US9695155B2, “Herbicidal substituted pyrimidinyloxy benzene compounds” (E. I. DU PONT DE NEMOURS AND COMPANY, priority 2013, dated 2017).

How the values were obtained:
Italian ryegrass [1] = assay: Test A postemergence; format: in vivo, Lolium multiflorum
In short: (§1)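 Greenhouse pot test, loam/sand soil. Formulation: non-phytotoxic solvent mix plus surfactant. Pre: directed spray onto soil after sowing. Post: plants at 1–2 leaf, 2–10 cm. Rated visually vs untreated controls at ~10 d, 0 (no effect) to 100 (complete control).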

barnyardgrass [2] = assay: Test B flooded paddy test; format: in vivo, Echinochloa crus-galli; conditions: Flood, 250 g ai/ha; 0 to 100 scale where 0 is no effect and 100 is complete control
In short: (§2)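 Scores from 0 (no effect) to 100 (complete control) are visual comparisons with controls, taken 13 to 15 days after compound was applied into floodwater 3 cm deep around 2-leaf plants.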

giant foxtail [3] = assay: Test A preemergence; format: in vivo, Setaria faberii; conditions: for Foxtail, Giant plant response rating (0 to 100 scale): 125 g ai/ha
In short: as §1

blackgrass = assay: Test A postemergence; format: in vivo, Alopecurus myosuroides
In short: as §1

Heteranthera limosa = assay: Test B flooded paddy test; format: in vivo; conditions: Flood, 250 g ai/ha; 0 to 100 scale where 0 is no effect and 100 is complete control
In short: as §2

ragweed [4] = assay: Test A preemergence; format: in vivo, Ambrosia elatior; conditions: for Ragweed plant response rating (0 to 100 scale): 125 g ai/ha
In short: as §1

ragweed [5] = assay: Test A postemergence; format: in vivo, Ambrosia elatior
Text: (§3) Seeds of plant species selected from barnyardgrass (Echinochloa crus-galli), kochia (Kochia scoparia), ragweed (common ragweed, Ambrosia elatior), Italian ryegrass (Lolium multiflorum), large (Lg) crabgrass (Digitaria sanguinalis), giant foxtail (Setaria faberii), morningglory (Ipomoea spp.), pigweed (Amaranthus retroflexus), velvetleaf (Abutilon theophrasti), wheat (Triticum aestivum), and corn (Zea mays) were planted into a blend of loam soil and sand and treated preemergence with a directed soil spray using test chemicals formulated in a non-phytotoxic solvent mixture which included a surfactant.
(§4) At the same time, plants selected from these crop and weed species and also blackgrass (Alopecurus myosuroides), and galium (catchweed bedstraw, Galium aparine) were planted in pots containing the same blend of loam soil and sand and treated with postemergence applications of test chemicals formulated in the same manner. Plants ranged in height from 2 to 10 cm and were in the one- to two-leaf stage for the postemergence treatment. Treated plants and untreated controls were maintained in a greenhouse for approximately 10 days, after which time all treated plants were compared to untreated controls and visually evaluated for injury. Plant response ratings, summarized in Table A, are based on a 0 to 100 scale where 0 is no effect and 100 is complete control. A dash (-) response means no test result.

pigweed [6] = assay: Test A preemergence; format: in vivo, Amaranthus retroflexus; conditions: for Pigweed plant response rating (0 to 100 scale): 125 g ai/ha
In short: as §1

giant foxtail [7] = assay: Test A postemergence; format: in vivo, Setaria faberii
In short: as §1

sedge, umbrella = assay: Test B flooded paddy test; format: in vivo, Cyperus difformis; conditions: Flood, 250 g ai/ha; 0 to 100 scale where 0 is no effect and 100 is complete control
In short: as §2

Italian ryegrass [8] = assay: Test A preemergence; format: in vivo, Lolium multiflorum; conditions: for Ryegrass, Italian plant response rating (0 to 100 scale): 125 g ai/ha
In short: as §1

barnyardgrass [9] = assay: Test A postemergence; format: in vivo, Echinochloa crus-galli
In short: as §1

kochia [10] = assay: Test A preemergence; format: in vivo, Kochia scoparia; conditions: for Kochia plant response rating (0 to 100 scale): 125 g ai/ha
In short: as §1

wheat = assay: Test A postemergence; format: in vivo, Triticum aestivum
In short: as §1

kochia [11] = assay: Test A postemergence; format: in vivo, Kochia scoparia
In short: as §1

pigweed [12] = assay: Test A postemergence; format: in vivo, Amaranthus retroflexus
In short: as §1

barnyardgrass [13] = assay: Test A preemergence; format: in vivo, Echinochloa crus-galli; conditions: for Barnyardgrass plant response rating (0 to 100 scale, 0 is no effect, 100 is complete control): 125 g ai/ha
In short: as §1

rice = assay: Test B flooded paddy test; format: in vivo, Oryza sativa; conditions: Flood, 250 g ai/ha; 0 to 100 scale where 0 is no effect and 100 is complete control
In short: as §2

galium = assay: Test A postemergence; format: in vivo, Galium aparine
Text: as §3, §4

corn = assay: Test A postemergence; format: in vivo, Zea mays
In short: as §1

[14] = 31 g ai/ha, 0 to 100 scale, 0 no effect, 100 complete control
[15] = 125 g ai/ha, 0 to 100 scale, 0 no effect, 100 complete control
[16] = 31 g ai/ha, 0 to 100 scale where 0 is no effect and 100 is complete control, visual, approximately 10 days
[17] = 125 g ai/ha, 0 to 100 scale where 0 is no effect and 100 is complete control
[18] = 500 g ai/ha, 0 to 100 scale where 0 is no effect and 100 is complete control
[19] = 1000 g ai/ha, 0 to 100 scale, 0 no effect, 100 complete control
[20] = 1000 g ai/ha, 0 to 100 scale, 0 no effect, 100 complete control, approx. 10 days

SMILES: FCc1cccc(Oc2ncc(F)cn2)c1-n1cc(Cl)cn1 [Compound 249]
- Plant response rating, Ryegrass, Italian (Italian ryegrass [1]; [14]): 0
- Plant response rating, Ryegrass, Italian (Italian ryegrass [1]; [15]): 0
- Plant response rating, Barnyardgrass (barnyardgrass [2]): 0
- Plant response rating, Foxtail, Giant (giant foxtail [3]; [16]): 0
- Foxtail, Giant plant response rating (0 to 100 scale) (giant foxtail [3]): 0
- Plant response rating, Blackgrass (blackgrass; [14]): 60
- Plant response rating, Blackgrass (blackgrass; [15]): 80
- Plant response rating, Ducksalad (Heteranthera limosa): 70
- Plant response rating, Ragweed (ragweed [4]; [16]): 0
- Ragweed plant response rating (0 to 100 scale) (ragweed [4]): 0
- Plant response rating, Ragweed (ragweed [5]; [14]): 10
- Plant response rating, Ragweed (ragweed [5]; [15]): 70
- Plant response rating, Pigweed (pigweed [6]; [16]): 90
- Pigweed plant response rating (0 to 100 scale) (pigweed [6]): 90
- Plant response rating, Foxtail, Giant (giant foxtail [7]; [14]): 0
- Plant response rating, Foxtail, Giant (giant foxtail [7]; [15]): 60
- Plant response rating, Sedge, Umbrella (sedge, umbrella): 60
- Plant response rating, Ryegrass, Italian (Italian ryegrass [8]; [16]): 0
- Ryegrass, Italian plant response rating (0 to 100 scale) (Italian ryegrass [8]): 30
- Plant response rating, Barnyardgrass (barnyardgrass [9]; [14]): 0
- Plant response rating, Barnyardgrass (barnyardgrass [9]; [15]): 60
- Plant response rating, Kochia (kochia [10]; [16]): 0
- Kochia plant response rating (0 to 100 scale) (kochia [10]): 40
- Plant response rating, Wheat (wheat; [14]): 0
- Plant response rating, Wheat (wheat; [15]): 0
- Plant response rating, Kochia (kochia [11]; [14]): 20
- Plant response rating, Kochia (kochia [11]; [15]): 80
- Plant response rating, Pigweed (pigweed [12]; [14]): 60
- Plant response rating, Pigweed (pigweed [12]; [15]): 100
- Plant response rating, Barnyardgrass (barnyardgrass [13]; [16]): 0
- Barnyardgrass plant response rating (0 to 100 scale, 0 is no effect, 100 is complete control) (barnyardgrass [13]): 0
- Plant response rating, Rice (rice): 0
- Plant response rating, Galium (galium; [14]): 20
- Plant response rating, Galium (galium; [15]): 30
- Plant response rating, Corn (corn; [14]): 0
- Plant response rating, Corn (corn; [15]): 10

SMILES: COc1ccc(C#N)c(-n2cc(Br)cn2)c1Oc1ncc(Cl)cn1 [Compound 212]
- Ryegrass, Italian plant response rating (Italian ryegrass [1]; [17]): 20
- Plant response rating, Ryegrass, Italian (Italian ryegrass [1]; [18]): 30
- Plant response rating, Barnyardgrass (barnyardgrass [2]): 0
- Foxtail, Giant plant response rating (0 to 100 scale) (giant foxtail [3]): 0
- Foxtail, Giant plant response rating (giant foxtail [3]; [18]): 50
- Blackgrass plant response rating (blackgrass; [17]): 10
- Plant response rating, Blackgrass (blackgrass; [18]): 50
- Plant response rating, Ducksalad (Heteranthera limosa): 0
- Ragweed plant response rating (0 to 100 scale) (ragweed [4]): 0
- Ragweed plant response rating (ragweed [4]; [18]): 0
- Ragweed plant response rating (ragweed [5]; [17]): 0
- Plant response rating, Ragweed (ragweed [5]; [18]): 10
- Pigweed plant response rating (0 to 100 scale) (pigweed [6]): 70
- Pigweed plant response rating (pigweed [6]; [18]): 90
- Foxtail, Giant plant response rating (giant foxtail [7]; [17]): 0
- Plant response rating, Foxtail, Giant (giant foxtail [7]; [18]): 50
- Plant response rating, Sedge, Umbrella (sedge, umbrella): 0
- Ryegrass, Italian plant response rating (0 to 100 scale) (Italian ryegrass [8]): 0
- Ryegrass, Italian plant response rating (Italian ryegrass [8]; [18]): 20
- Barnyardgrass plant response rating (barnyardgrass [9]; [17]): 0
- Plant response rating, Barnyardgrass (barnyardgrass [9]; [18]): 0
- Kochia plant response rating (0 to 100 scale) (kochia [10]): 0
- Kochia plant response rating (kochia [10]; [18]): 40
- Wheat plant response rating (wheat; [17]): 0
- Plant response rating, Wheat (wheat; [18]): 30
- Kochia plant response rating (kochia [11]; [17]): 0
- Plant response rating, Kochia (kochia [11]; [18]): 10
- Pigweed plant response rating (pigweed [12]; [17]): 20
- Plant response rating, Pigweed (pigweed [12]; [18]): 30
- Barnyardgrass plant response rating (0 to 100 scale, 0 is no effect, 100 is complete control) (barnyardgrass [13]): 0
- Barnyardgrass plant response rating (barnyardgrass [13]; [18]): 20
- Plant response rating, Rice (rice): 0
- Galium plant response rating (galium; [17]): 10
- Plant response rating, Galium (galium; [18]): 30
- Corn plant response rating (corn; [17]): 0
- Plant response rating, Corn (corn; [18]): 0

SMILES: O=Cc1cn(-c2c(F)cccc2Oc2ncc(Cl)cn2)nn1 [Compound 139]
- Plant response rating, Ryegrass, Italian (Italian ryegrass [1]; [19]): 0
- Foxtail, Giant plant response rating (giant foxtail [3]; [20]): 0
- Plant response rating, Blackgrass (blackgrass; [19]): 0
- Ragweed plant response rating (ragweed [4]; [20]): 0
- Plant response rating, Ragweed (ragweed [5]; [19]): 0
- Pigweed plant response rating (pigweed [6]; [20]): 50
- Plant response rating, Foxtail, Giant (giant foxtail [7]; [19]): 0
- Ryegrass, Italian plant response rating (Italian ryegrass [8]; [20]): 0
- Plant response rating, Barnyardgrass (barnyardgrass [9]; [19]): 0
- Kochia plant response rating (kochia [10]; [20]): 0
- Plant response rating, Wheat (wheat; [19]): 0
- Plant response rating, Kochia (kochia [11]; [19]): 0
- Plant response rating, Pigweed (pigweed [12]; [19]): 30
- Barnyardgrass plant response rating (barnyardgrass [13]; [20]): 0
- Plant response rating, Galium (galium; [19]): 10
- Plant response rating, Corn (corn; [19]): 20

SMILES: Fc1cccc(Oc2ncc(Cl)cn2)c1-n1cc(C2CCCCC2)nn1 [Compound 102]
- Plant response rating, Ryegrass, Italian (Italian ryegrass [1]; [19]): 0
- Foxtail, Giant plant response rating (giant foxtail [3]; [20]): 100
- Plant response rating, Blackgrass (blackgrass; [19]): 40
- Ragweed plant response rating (ragweed [4]; [20]): 0
- Plant response rating, Ragweed (ragweed [5]; [19]): 20
- Pigweed plant response rating (pigweed [6]; [20]): 20
- Plant response rating, Foxtail, Giant (giant foxtail [7]; [19]): 40
- Ryegrass, Italian plant response rating (Italian ryegrass [8]; [20]): 0
- Plant response rating, Barnyardgrass (barnyardgrass [9]; [19]): 50
- Kochia plant response rating (kochia [10]; [20]): 0
- Plant response rating, Wheat (wheat; [19]): 0
- Plant response rating, Kochia (kochia [11]; [19]): 30
- Plant response rating, Pigweed (pigweed [12]; [19]): 80
- Plant response rating, Barnyardgrass (barnyardgrass [13]; [19]): 50
- Plant response rating, Galium (galium; [19]): 70
- Plant response rating, Corn (corn; [19]): 20

SMILES: Fc1cccc(Oc2ncc(Cl)cn2)c1-n1cc(-c2cccc(C(F)(F)F)c2)nn1 [Compound 276]
- Plant response rating, Ryegrass, Italian (Italian ryegrass [1]; [19]): 0
- Foxtail, Giant plant response rating (giant foxtail [3]; [20]): 0
- Plant response rating, Blackgrass (blackgrass; [19]): 20
- Ragweed plant response rating (ragweed [4]; [20]): 0
- Plant response rating, Ragweed (ragweed [5]; [19]): 30
- Pigweed plant response rating (pigweed [6]; [20]): 0
- Plant response rating, Foxtail, Giant (giant foxtail [7]; [19]): 20
- Ryegrass, Italian plant response rating (Italian ryegrass [8]; [20]): 0
- Plant response rating, Barnyardgrass (barnyardgrass [9]; [19]): 20
- Kochia plant response rating (kochia [10]; [20]): 0
- Plant response rating, Wheat (wheat; [19]): 0
- Plant response rating, Kochia (kochia [11]; [19]): 40
- Plant response rating, Pigweed (pigweed [12]; [19]): 80
- Barnyardgrass plant response rating (barnyardgrass [13]; [20]): 0
- Plant response rating, Galium (galium; [19]): 20
- Plant response rating, Corn (corn; [19]): 10
